Results on 29 compounds are retold here after patent US12583856B2, “Inhibitors of protein kinase A” (Blueprint Medicines Corporation, priority 2021, dated 2026).

A word on the IC50: it is the point on the concentration scale where inhibition reaches its midpoint.

A value given as a limit tells only on which side of the number the result lay.

The test system of assay [1] is PKA (phosphorylation of VASP on Serine 157). Description: Cellular potency assay: P-VASP(157) HTRF in Forskolin-stimulated Huh7 cells. The note with it: Homo sapiens, Huh-7, 4 hours compound, 5 μM Forskolin 30 minutes, read-out: Phos VASP(S157) IC50. In kind it is cell-based. The text has this: PKA directly phosphorylate VASP on Serine 157. Phosphorylation of VASP on Serine 157. P-VASP(157) was therefore used as a readout of PKA cellular activity. P-VASP(157) was detected with a HTRF assay, which is based on a TR-FRET sandwich immunoassay-based format comprising two specific anti-VASP antibodies following the manufactors protocol (Cisbio, Catalog No. 63ADK066PEH). PKA was activated in the assay by the addition of Forskolin (Sigma-Aldrich, Catalog No. F3917).
Dose response in Forskolin-stimulated human Huh7 cells was measured as follows. Briefly, Huh7 cells were plated at a density of 2×10^4 cells per well in a 384-well opti-well cell culture plate in 15 μl of serum- and phenol-free Dulbecco's Modified Eagle Medium (DMEM, Gibco Catalog No. 21063-029), and incubated for over night at 37° C., 5% CO2. The next day, 3 μl of a dosed concentration series of test compound (0.24%) DMSO final concentration) was added to the wells, and the cells were incubated for an additional 4 hours at 37° C., 5% CO2. 2 μl of Forskolin was added at a final concentration of 5 μM and the plates were incubated for 30 minutes at 37° C., 5% CO2. 5 μl of lysis buffer containing 1% HALT protease cocktail inhibitors (ThermoFisher, Catalog No. 78430), was added to the cells and the mixture was incubated under gentle shaking for 30 min at room temperature. 10 μl of this lysate was transferred to a 384-well proxi plate and 2.5 μL of the premixed antibody solution was added. An antibody solution was prepared by combining phopho-VASP cryptate antibody and phospho-VASP d2 antibody, at twenty-fold dilution into a buffer solution following the manufactors' protocol. The lysate and antibody mixture was incubated for either 3 h at room temperature or overnight at 4° C. The fluorescence emission at two different wavelengths (665 nm and 620 nm) was read on an EnVision instrument.
Background: In TR-FRET formats the signal depends on donor and acceptor labels being close together.

Assay [2] concerns the target T1, PRKACA (Homo sapiens, UniProt P17612).
T1 construct: purchased Millipore 539482
Description: PRKACA assay at Km (EZ Reader 2 electrophoretic mobility shift). The format is biochemical. The note with it: 5 μM ATP (Km), 1 μM Kemptide, 90 minutes at 25 C; read-out: Enz PRKACA IC50. How it is done:
(§1) A Perkin Elmer electrophoretic mobility shift platform (the EZ Reader 2) was used to assess the activity of test compounds against a kinase of interest. Fluorescently labeled substrate peptide was incubated in the presence of kinase, ATP, and the test compound, so that a portion of the peptide was phosphorylated by the enzyme. At the end of the reaction, the mix of phosphorylated (product) and non-phosphorylated (substrate) peptide containing solutions was passed through the microfluidic system of the Perkin Elmer EZ Reader 2 under an applied potential difference. The presence of the phosphate group on the product peptide provided a difference in mass and charge between those of the substrate peptide, resulting in a separation of the substrate and product pools in the sample. As the stopped solutions passed under the instrument's LED light the phosphorylated and un-phosphorylated fluorophore bound peptides were detected and resolved as separate peaks. The ratio between these peaks therefore reflected the test compound's impact on the kinase at that concentration in that well under those conditions.
PRKACA assay at Km: In each well of a 384-well plate, 0.007 ng/ul (0.18 nM) of PRKACA enzyme (Millipore: 539482) was incubated in a total of 12.5 μl of buffer (100 mM HEPES pH 7.5, 0.015% Brij 35, 10 mM MgCl2, 1 mM DTT) with 1 μM Kemptide peptide substrate (5-FAM-LRRASLG) (Anaspec 29933) and 5 μM ATP at 25 C for 90 minutes in the presence or absence of a dosed concentration series of test compounds (1% DMSO final concentration). The reaction was stopped by the addition of 80 μl of Stop buffer (100 mM HEPES pH 7.5, 0.015% Brij 35, 35 mM EDTA and 0.2% of Coating Reagent 3 (Perkin Elmer)). The plate was then read on the EZ Reader 2 (protocol settings: −2.0 psi, upstream voltage −700, downstream voltage −2700, post sample sip 60 seconds). Data was normalized to 0% and 100% inhibition controls and the IC50 calculated using a 4-parameter fit using GraphPad Prism.
(In general: A gel shift assay detects complexes by their altered migration in electrophoresis.)

Assay [3] concerns the target T2, PRKACA-DNAJB1 (Homo sapiens, UniProt P17612).
T2 construct: DNAJB1 (fusion partner, P25685); the other entry of the earlier key: DNAJB1 (P25685, DnaJ homolog subfamily B member 1)
Description: PRKACA-DNAJB1 enzyme assay (EZ Reader 2 electrophoretic mobility shift). In kind it is biochemical. The note with it: read-out: Enz PRKACA-DNAJB1 IC50. Here is the method: as §1

Take `C[C@@H]1C[C@H](NC(=O)c2ccc(-c3ccnc4[nH]ccc34)cc2)c2ccccc2O1` [Compound 109]: the IC50 in assay [1] was below 50 nM; in assay [2] it was at most 1 nM; in assay [3] it was at most 1 nM.

Turning to `C[C@H]1Oc2ccc(F)c(F)c2[C@@H](NC(=O)c2ccc(-c3ccnc4[nH]ccc34)nc2)[C@H]1O` [Compound 151], the IC50 in assay [1] is below 50 nM; in assay [2], at most 1 nM; in assay [3], at most 1 nM.

`Cc1c[nH]c2nccc(-c3ccc(C(=O)N[C@@H]4c5ccccc5C[C@H]4O)cc3)c12` [Compound 107, N-[(1R,2R)-2-Hydroxy-2,3-dihydro-1H-inden-1-yl]-4-{3-methyl-1H-pyrrolo[2,3-b]pyridin-4-yl}benzamide]: the figures for the IC50 in assay [1], in assay [2] and in assay [3] were below 50 nM, at most 1 nM and at most 1 nM, respectively.

`Cc1c[nH]c2nccc(-c3ccc(C(=O)N[C@H]4CCOc5cccc(F)c54)cn3)c12` [Compound 121, (S)—N-(5-Fluorochroman-4-yl)-6-(3-methyl-1H-pyrrolo[2,3-b]pyridin-4-yl)nicotinamide]: the IC50 was 0.01 to 100 nM in assay [1], at most 1 nM in assay [2] and 1.01 to 5 nM in assay [3].

As for `O=C(N[C@@H]1c2ccccc2C[C@@H]1O)c1ccc(-c2ccnc3[nH]ccc23)cc1` [Compound 101, N-[(1R,2S)-2-Hydroxy-2,3-dihydro-1H-inden-1-yl]-4-{1H-pyrrolo[2,3-b]pyridin-4-yl}benzamide], the IC50 in assay [1] is below 50 nM; in assay [2], at most 1 nM; in assay [3], at most 1 nM.

Regarding `O=C(N[C@@H]1c2ccccc2OC[C@@H]1O)c1ccc(-c2ccnc3[nH]ccc23)cc1` [Compound 110, N-[(3R,4R)-3-Hydroxy-3,4-dihydro-2H-1-benzopyran-4-yl]-4-{1H-pyrrolo[2,3-b]pyridin-4-yl}benzamide], the values for the IC50 in assay [1], in assay [2] and in assay [3] were below 50 nM, at most 1 nM and at most 1 nM, respectively.

On to `O=C(N[C@H]1CCOc2ccccc21)c1ccc(-c2ccnc3[nH]ccc23)cc1` [Compound 103], for which the IC50 in assay [1] is below 50 nM; in assay [2], at most 1 nM; in assay [3], at most 1 nM.

As for `O=C(N[C@@H]1c2ccccc2C[C@@H]1CO)c1ccc(-c2ccnc3[nH]ccc23)cc1` (single isomer, unassigned) [Compound 108], the IC50 is below 50 nM in assay [1], at most 1 nM in assay [2] and at most 1 nM in assay [3].

With `O=C(N[C@H]1CCOc2cc(F)ccc21)c1ccc(-c2ccnc3[nH]ccc23)cc1` [Compound 113], the IC50 in assay [1] is 0.01 to 100 nM; in assay [2], at most 1 nM; in assay [3], 1.01 to 5 nM.

Consider `Cc1c[nH]c2nccc(-c3ccc(C(=O)N[C@@H]4c5c(ccc(F)c5F)C[C@H]4N4CCCC4)cn3)c12` [Compound 175], for which the values for the IC50 in assay [1], in assay [2] and in assay [3] were below 50 nM, at most 1 nM and at most 1 nM, respectively.

On to `O=C(N[C@@H]1c2c(F)cc(C(F)F)cc2C[C@H]1N1CC[C@H](F)C1)c1ccc(-c2ccnc3[nH]ccc23)nc1` [Compound 190], for which the results for the IC50 in assay [1], in assay [2] and in assay [3] were below 50 nM, at most 1 nM and at most 1 nM, respectively.

Turning to `O=C(N[C@@H]1c2ccccc2C[C@H]1O)c1ccc(-c2ccnc3[nH]cc(F)c23)cc1` [Compound 111], the figures for the IC50 in assay [1], in assay [2] and in assay [3] were below 50 nM, at most 1 nM and at most 1 nM, respectively.

On to `O=C(N[C@@H]1c2ccccc2OC[C@H]1F)c1ccc(-c2ccnc3[nH]ccc23)cc1` [Compound 116, N-[(3S,4R)-3-Fluoro-3,4-dihydro-2H-1-benzopyran-4-yl]-4-{1H-pyrrolo[2,3-b]pyridin-4-yl}benzamide], for which the IC50 in assay [1] is 0.01 to 100 nM; in assay [2], at most 1 nM.

Consider `O=C(N[C@@H]1c2c(Cl)cccc2C[C@H]1N1CCCC1)c1ccc(-c2ccnc3[nH]ccc23)nc1` [Compound 168], for which the concentration for half-maximal inhibition (IC50) is below 50 nM in assay [1] and at most 1 nM in assay [2].

On to `Cc1c[nH]c2nccc(-c3ccc(C(=O)N[C@@H]4c5c(ccc(F)c5Cl)C[C@H]4N4CCCC4)cn3)c12` [Compound 181], for which the IC50 in assay [1] is below 50 nM; in assay [2] it was at most 1 nM.

Take `CN(C)C(=O)[C@H]1N([C@@H]2Cc3cccc(Cl)c3[C@H]2NC(=O)c2ccc(-c3ccnc4[nH]ccc34)cn2)CC1(C)C` [Compound 193]: the figures for the IC50 in assay [1] and in assay [2] were below 50 nM and at most 1 nM, respectively.

As to `Cc1c[nH]c2nccc(-c3ccc(C(=O)N[C@@H]4c5c(Cl)cccc5C[C@H]4N4CC[C@H](F)C4)cn3)c12` [Compound 182], the figures for the 50% inhibitory concentration (IC50) in assay [1] and in assay [2] were 0.01 to 100 nM and at most 1 nM, respectively.

With `O=C(N[C@@H]1c2c(ccc(F)c2Cl)C[C@H]1N1CCCC1)c1ccc(-c2ccnc3[nH]ccc23)nc1` [Compound 177], the values for the IC50 in assay [1] and in assay [2] were below 50 nM and at most 1 nM, respectively.

Turning to `C[C@H]1Oc2cccc(F)c2[C@@H](NC(=O)c2ccc(-c3ccnc4[nH]ccc34)nc2)[C@@H]1O` [Compound 137], the concentration for half-maximal inhibition (IC50) in assay [1] is 0.01 to 100 nM; in assay [2] it was at most 1 nM.

As to `O=C(N[C@@H]1c2c(Cl)cccc2C[C@H]1N1C[C@@H](O)[C@@H](F)C1)c1ccc(-c2ccnc3[nH]ccc23)nc1` [Compound 187], the values for the IC50 in assay [1] and in assay [2] were above 100 nM and 1.01 to 5 nM, respectively.

On to `O=C(N[C@H]1CCOc2ccc(Cl)c(F)c21)c1ccc(-c2ccnc3[nH]ccc23)nc1` [Compound 143], for which the IC50 in assay [1] was below 50 nM; in assay [2] it was at most 1 nM.

Take `O=C(N[C@@H]1c2c(ccc(F)c2F)C[C@@H]1O)c1ccc(-c2ccnc3[nH]ccc23)nc1` [Compound 132, N-[(1R,2S)-6,7-Difluoro-2-hydroxy-2,3-dihydro-1H-inden-1-yl]-6-{1H-pyrrolo[2,3-b]pyridin-4-yl}pyridine-3-carboxamide]: the IC50 in assay [1] is below 50 nM; in assay [2], at most 1 nM.

`O=C(N[C@H]1C[C@H](O)c2cccc(F)c21)c1ccc(-c2ccnc3[nH]ccc23)nc1` (single isomer, unassigned) [Compound 118]: the IC50 in assay [1] was 0.01 to 100 nM; in assay [2], at most 1 nM.

Consider `O=C(N[C@@H]1c2c(ccc(F)c2F)C[C@H]1N1CCCC1)c1ccc(-c2ccnc3[nH]cc(F)c23)nc1` [Compound 179], for which the results for the IC50 in assay [1] and in assay [2] were below 50 nM and at most 1 nM, respectively.

For the compound `O=C(N[C@@H]1c2ccc(C(F)F)cc2C[C@H]1N1CC[C@H](F)C1)c1ccc(-c2ccnc3[nH]ccc23)nc1` [Compound 183], the IC50 in assay [1] is 0.01 to 100 nM; in assay [2], 1.01 to 5 nM.

Consider `CC1CN([C@@H]2Cc3ccccc3[C@H]2NC(=O)c2ccc(-c3ccnc4[nH]ccc34)nc2)C1` [Compound 145], for which the IC50 in assay [1] was 0.01 to 100 nM; in assay [2] it was at most 1 nM.

Consider `CO[C@@H]1CCN([C@@H]2Cc3ccccc3[C@H]2NC(=O)c2ccc(-c3ccnc4[nH]ccc34)nc2)C1` [Compound 163], for which the IC50 was 0.01 to 100 nM in assay [1] and at most 1 nM in assay [2].

Consider `Cc1c[nH]c2nccc(-c3ccc(C(=O)N[C@H]4CCOc5cc(F)cc(F)c54)cn3)c12` [Compound 138], for which the half-maximal inhibitory concentration (IC50) in assay [1] was 0.01 to 100 nM; in assay [2], at most 1 nM.

On to `O=C(N[C@H]1CCc2cccc(F)c21)c1ccc(-c2ccnc3[nH]ccc23)nc1` [Compound 106], for which the IC50 in assay [1] was 0.01 to 100 nM; in assay [2], at most 1 nM.
